Here are results for four molecules from patent US8476276B2, “Pharmaceutical compositions based on kinin B2 receptor antagonists and corticosteroids, and their use” (Istituto Luso Farmaco d'Italia S.p.A., priority 2008, dated 2013).

For test [1], the system named is human airway muscle cells. Briefly: LPS-induced PGE2 release in cultures of human airway muscle cells. It counts as cell-based. Particulars: LPS 1 μg/ml for 24 hours. On the procedure: Similar findings were obtained with an in vitro model, in cultures of human airway muscle cells stimulated for 24 hours with 1 μg/ml LPS, where an approximately 16-fold increase in the production of PGE2 was observed compared with the control.

For test [2], the system named is cell infiltration in the airways caused by LPS. Briefly: LPS-induced airway inflammation, leucocytes in bronchoalveolar washing. It counts as in vivo, guinea pig. Particulars: for reduction of the number of inflammatory cells in the airways after LPS: aerosol of a 1 mg/ml solution for 15 min.
Test [3] deals with carrageenan-induced joint oedema. Briefly: Carrageenan-induced knee arthritis, joint oedema (knee joint diameter). The following applies: for reduction of carrageenan-induced knee swelling: hydrocortisone experiment, 100 μg i.a. 30 min before carrageenan. It counts as in vivo, rat. As to the method: (§1) The activity of MEN16132, icatibant and cortisones was measured in an experimental model of arthritis induced by intra-articular injection of carrageenan which causes a strong inflammatory effect. […] The weight imbalance on the two weight-bearing paws, evaluated in a non-invasive way with the incapacitance test, measures the pain resulting from the joint inflammation. The diameter of the knee joint was also measured to measure the oedema.

Test [4] has as its system carrageenan-induced joint pain. Briefly: Carrageenan-induced knee arthritis, joint pain (incapacitance test). It counts as in vivo, rat. On the procedure: as §1
Test [5] concerns symptomatic OA of the knee. Particulars: cited from earlier work.
Where [6] appears, read: 100 μg/25 μl i.a. 30 min before carrageenan, maximum effect 6 hours.
Where [7] appears, read: 100 μg i.a. 30 min before carrageenan, 6 hours after the irritant.

On to `Cc1cc(C)c2cccc(OCc3c(Cl)ccc(S(=O)(=O)NC4(C(=O)N5CCN(C(=O)[C@@H](N)CCC[N+](C)(C)C)CC5)CCOCC4)c3Cl)c2n1` [MEN16132, (4-(S)-amino-5-(4-{4-[2,4-dichloro-3-(2,4-dimethyl-quinolin-8-yloxymethyl)-benzenesulphonylamino]-tetrahydro-pyran-4-carbonyl}-piperazin-1-yl)-5-oxo-pentyl]-trimethyl-ammonium], for which the “reduction of LPS-induced release of PGE2” value in test [1] (100 nM) was 39%. Further, the “reduction of the number of inflammatory cells in the airways after LPS” value in test [2] was 6%. Also, in test [3] (setting [6]), the “reduction of carrageenan-induced oedema” value stood at 45±3%. Also, the “reduction of carrageenan-induced knee swelling” value in test [3] amounted to 42±3%. The “reduction of joint pain” value in test [4] (setting [7]) stood at 38±4%.
As for `C[C@@H]1C[C@H]2[C@@H]3CCC4=CC(=O)C=C[C@]4(C)[C@@]3(F)[C@@H](O)C[C@]2(C)[C@@]1(O)C(=O)CO` [dexamethasone, Dexamethasone], in test [1] (1 μM), the “reduction of LPS-induced release of PGE2” value was determined as 45%. The “reduction of cell infiltration in the airways after LPS” value in test [2] (aerosol of a 0.03 mg/ml solution for 15 min) worked out at 8%. Besides, the “reduction of carrageenan-induced oedema” value is 57±3% in test [3] (setting [6]) and “inactive” in test [3] (dexamethasone 10 μg i.a.). The “reduction of joint pain” value in test [4] (10 μg i.a.) was determined as 14±4%; in test [4] (setting [7]), 44±3%.
Regarding `C[C@]12CCC(=O)C=C1CC[C@@H]1[C@@H]2[C@@H](O)C[C@@]2(C)[C@H]1CC[C@]2(O)C(=O)CO` [hydrocortisone, Hydrocortisone], the “reduction of carrageenan-induced knee swelling” value in test [3] was −4±3%.
Consider `NC(N)=NCCC[C@@H](N)C(=O)N[C@@H](CCCN=C(N)N)C(=O)N1CCC[C@H]1C(=O)N1C[C@H](O)C[C@H]1C(=O)NCC(=O)N[C@@H](Cc1cccs1)C(=O)N[C@@H](CO)C(=O)N1Cc2ccccc2C[C@@H]1C(=O)N1[C@H](C(=O)N[C@@H](CCCN=C(N)N)C(=O)O)C[C@@H]2CCCC[C@@H]21` [icatibant, H-D-Arg-Arg-Pro-Hyp-Gly-Thi-Ser-D-Tic-Oic-Arg-OH], for which the “duration of analgesic response after the treatment” value in test [5] (intra-articular infiltration, 3×500 μg injections one week apart) was “up to 3 months”. Also, in test [5] (phase II, single intra-articular administration 90 μg/1 ml, versus placebo), the “intensity of pain in the knee” value is given as “reduced the intensity of pain in the knee to a greater extent than the placebo”. Also, the “reduction of LPS-induced release of PGE2” value in test [1] (100 nM) worked out at 30%. For the same molecule, the “reduction of the number of inflammatory cells in the airways after LPS” value in test [2] is 5%. Besides, the “reduction of carrageenan-induced oedema” value in test [3] (setting [6]) came out at 48±5%.
